Measurements taken from patent publication EP0686635A1, “Pyridylthiazolidinecarboxylic acid amide derivatives, their preparation and their therapeutic uses” (Sankyo Company Limited, priority 1991, dated 1993).
Converted amounts (≈) assume the structure as drawn. Read-outs that look alike come from different tables or passages of the source.

Key:
[1] = system: PAF-induced blood platelet aggregation; test: Inhibitory effect in vitro against PAF-induced blood platelet aggregation; type: cell-based; conditions: Oryctolagus cuniculus; rabbit platelet rich plasma, stimulated with ℓ-C16:0 PAF (10⁻⁸ ∼ 3 x 10⁻⁸ M), 37°C; read-out: Platelet aggregation inhibition, IC₅₀
Protocol: Blood samples were obtained by cardiac puncture from a rabbit and one part by volume of each sample was immediately mixed with 0.1 part of a 3.8% w/v aqueous solution of sodium citrate. A platelet rich plasma (PRP) fraction was prepared by centrifuging the samples at 150 x G for 15 minutes at room temperature, and a platelet poor plasma (PPP) fraction was then prepared by further centrifugation at 1,000 x G for 15 minutes. The platelet count in the PRP was adjusted to 6 x 10⁵ per µℓ by the addition of an appropriate amount of the PPP fraction. According to the method reported by Born et al. [G.V.R. Born et al.: J. Physiol. 62, 67 - 68 (1962)], blood platelet aggregation was determined turbidimetrically in a 6-channel aggregometer (Hemetracer, NKB, Tokyo, Japan). Aliquots of the PRP (272 µℓ) were preincubated with 3 µℓ of a solution of the test compound in dimethyl sulphoxide for 1 minute, and then stimulated with ℓ-C16:0 PAF (at a final concentration of 10⁻⁸ ∼ 3 x 10⁻⁸ M) at 37°C with stirring (100 rpm). Changes in light transmission were monitored for 5 minutes. Vehicle (dimethyl sulphoxide) controls were tested simultaneously, and the inhibitory effects of the test compounds were assessed on the maximal aggregation. The IC₅₀ values were calculated by the method of least squares.

[2] = system: intracutaneous reaction in rats by PAF; test: Inhibitory effect on intracutaneous reaction in rats by PAF; type: in vivo; conditions: dose 6.4 mg/kg p.o., 60 minutes before intradermal PAF, leaked Evans blue vs control group
Protocol: Male SD rats (5 weeks old) were used as the test animals in groups, each containing 4 animals. Each rat was administered orally with a suspension of the test compound in a 0.5% w/v aqueous tragacanth solution. Sixty minutes after the administration, aqueous physiological saline containing 1.0% w/v Evans blue was injected into the tail vein in an amount of 5 ml/kg of the body weight. Immediately after the injection, 0.05 ml of a solution containing 2 µg/ml of PAF was intradermally injected into the back of the rat to induce a cutanous reaction. After 30 minutes, the rats were sacrificed using carbon dioxide, and the quantity of Evans blue which had leaked into the skin of the back was determined by the method of Harada et al. [J. Pharm. Pharmac., 23, 218 - 219 (1971)]. The inhibition rate of the compound was calculated by comparing the average amount of colourant which had leaked in the group treated with the test compound with that of control group to which no test compound was administered.
The inhibition rate was calculated according to the following equation: Inhibition rate (%) = (1 - B/A) x 100 [formula] where: A: Amount of colourant leaked in the control group B: Amount of colourant leaked in the group to which the test compound was administered.

[3] = system: passive cutaneous anaphylaxis (PCA) in rats; test: Inhibitory effect on passive cutaneous anaphylaxis (PCA) in rats; type: in vivo; conditions: dose 6.4 mg/kg p.o., 60 minutes before antigen challenge, exuded Evans Blue vs control group
Protocol: According to Mota's method [I. Mota, Immunology, 7, 681 - 699 (1964)], antiserum (256 times the PCA titer) of rat against egg albumin was prepared and diluted four times with physiological saline. Male SD rats (5 weeks old) were used as the test animals in groups, each containing 4 animals. The rats were sensitized by intradermal injection of 0.05 ml of the diluted antiserum solution in the dorsal position. 48 hours after this injection, a suspension of the test compound in an aqueous 0.5% w/v tragacanth solution was orally administered to the rats, which had been fasted for one day, and 60 minutes later they were injected in the caudal vein with 5 ml/kg body weight of physiological saline containing 0.4% w/v egg albumin and 1.0% w/v Evans Blue. 30 minutes after this last injection, the rats were sacrificed with carbon dioxide and the Evans Blue exuded in the dorsal intradermal portion was determined according to Harada's method (Harada et al., J. Pharm. Pharmac., 23, 218 - 219 (1971)].
The results achieved from the test groups which were treated with a test compound were evaluated to determine the inhibitory rate by comparison with the average amount of exuded dye in a control group, which was not given the test compound.
The inhibitory rate was calculated by the following equation. Inhibitory rate (%) = (1-B/A) x 100 [formula] A: amount of exuded dye in the control group B: amount of exuded dye in the test group.

PAF-receptor = biological target: T1, PAF-receptor (Oryctolagus cuniculus, UniProt G1TEI7); test: Inhibitory effect on PAF-receptor binding; design: species or system rabbit
T1 construct: a precipitated blood platelet sample was obtained; from tissue; host or cells: rabbit blood platelets, membrane fraction from the 0.25 M / 1.5 M sucrose interface
T1 sequence (G1TEI7 1-342): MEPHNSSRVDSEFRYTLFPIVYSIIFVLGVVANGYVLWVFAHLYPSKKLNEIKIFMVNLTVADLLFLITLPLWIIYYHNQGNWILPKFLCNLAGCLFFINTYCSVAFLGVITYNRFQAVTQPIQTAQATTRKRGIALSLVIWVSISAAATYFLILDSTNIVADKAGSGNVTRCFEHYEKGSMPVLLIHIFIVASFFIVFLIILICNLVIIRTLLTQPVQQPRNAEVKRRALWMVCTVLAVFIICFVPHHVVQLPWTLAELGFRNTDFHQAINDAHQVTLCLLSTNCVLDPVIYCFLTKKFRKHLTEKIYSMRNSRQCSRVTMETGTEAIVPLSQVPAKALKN
Text: Blood samples were drawn from the heart of a rabbit. 1 part by volume of each sample was mixed immediately with 1/9 part of a 0.077 M solution of disodium ethylenediaminetetraacetate. After a similar procedure to that described in Experiment 2, a precipitated blood platelet sample was obtained. This blood platelet sample was washed, and, after repeated freesing and thawing to rupture the cells, it was placed on top of two layers consisting of 0.25 M and 1.5 M sucrose solutions. By centrifugation at 63,500 x G, for 2 hours at 4°C, the fraction obtained from the interface between the 0.25 M and 1.5 M sucrose solutions was collected and is regarded as a PAF-receptor membrane fraction. A receptor binding experiment was then conducted according to a method very similar to that reported by Hwang et al. [San-Bao Hwang et al.: J. Biol. Chem. 260, 15639 - 15645 (1985)]. The specific binding of ³H-PAF was measured using a Wattman GF/C filter. A test compound was dissolved in dimethyl sulphoxide and diluted 100 fold with a buffer solution containing 0.5% bovine serum albumin. Nine parts by volume of the solution, for a receptor binding experiment, was mixed with one part of the test compound solution prepared above. The percent inhibition of the specific binding was plotted against the log of the concentration of the test compound, and the 50% inhibitory concentration (IC₅₀) was calculated from the linear line connecting all the plotted points.

[4] = rabbit platelet PAF-receptor membrane fraction, specific binding of ³H-PAF, read-out: Receptor binding inhibition, IC₅₀ (g/ml) (converted)

Structure (SMILES) | IC50 [1] [µg/mL] | Inhibitory rate (%) [2] [%] | Inhibitory rate (%) [3] [%] | IC50 (PAF-receptor; [4]) [nM] | IC50 (PAF-receptor) [nM]
CN(CCOC(c1ccccc1)c1ccccc1)CCN(C)C(=O)[C@@H]1CSC(c2cccnc2)N1 (stereo partly drawn) [Example 1, (4R)-N-Methyl-N-{2-[N-(2-diphenylmethoxyethyl)-N-methylamino]ethyl}-2-(3-pyridyl)thiazolidine-4-carboxamide] | 0.063 (≈ 0.128 µM) | 57 | 33 | – | –
O=C([C@@H]1CSC(c2cccnc2)N1)N1CCN(CCOC(c2ccccc2)c2ccc(Cl)cc2)CC1 (some centres unmarked) [Example 4] | 0.085 (≈ 0.162 µM) | 64 | – | 51.6 | –
O=C([C@@H]1CSC(c2cccnc2)N1)N1CCN(CCN2CCC(=C(c3ccccc3)c3ccccc3)CC2)CC1 (stereo partly drawn) [Example 5, (4R)-1-{2-[4-(Diphenylmethylene)-1-piperidinyl]ethyl}-4-[2-(3-pyridyl)thiazolidin-4-ylcarbonyl]piperazine] | – | – | 42 | – | –
Cc1ccc(C(OCCN2CCN(C(=O)[C@@H]3CSC(c4cccnc4)N3)CC2)c2ccccc2)cc1 (some centres unmarked) [Example 6] | 0.055 (≈ 0.109 µM) | – | 45 | 41.8 | –
O=C([C@@H]1CSC(c2cccnc2)N1)N1CCN(CCOC(c2ccccc2)c2ccccc2)CC1 (stereo partly drawn) [Example 7, (4R)-1-(2-Diphenylmethoxyethyl)-4-[2-(3-pyridyl)thiazolidin-4-ylcarbonyl]piperazine] | 0.095 (≈ 0.194 µM) | 70 | – | – | 51.2
O=C([C@@H]1CSC(c2cccnc2)N1)N1CCN(CCOC(c2ccccc2)C2CCCCC2)CC1 (stereo partly drawn) [Example 11, (4R)-1-[2-(α-Cyclohexylbenzyloxy)ethyl]-4-[2-(3-pyridyl)thiazolidin-4-ylcarbonyl]piperazine] | 0.072 (≈ 0.146 µM) | – | – | 445 | –
O=C([C@@H]1CSC(c2cccnc2)N1)N1CCCN(CCOC(c2ccc(F)cc2)c2ccc(F)cc2)CC1 (stereo partly drawn) [Example 12, (4R)-1-[2-Bis(4-fluorophenyl)methoxyethyl]-4-[2-(3-pyridyl)thiazolidin-4-ylcarbonyl]homopiperazine] | 0.19 (≈ 0.353 µM) | – | – | – | 390
O=C([C@@H]1CSC(c2cccnc2)N1)N1CCCN(CCOC(c2ccccc2)c2ccccc2)CC1 (stereo partly drawn) [Example 13, (4R)-1-(2-Diphenylmethoxyethyl)-4-[2-(3-pyridyl)thiazolidin-4-ylcarbonyl]homopiperazine] | 0.22 (≈ 0.438 µM) | – | – | – | 279
O=C([C@@H]1CSC(c2cccnc2)N1)N1CCN(CCOC(c2ccc(F)cc2)c2ccc(F)cc2)CC1 (stereo partly drawn) [Example 14, (4R)-1-[2-Bis(4-fluorophenyl)methoxyethyl]-4-[2-(3-pyridyl)thiazolidin-4-ylcarbonyl]piperazine] | 0.14 (≈ 0.267 µM) | 47 | – | – | 19.1
O=C(NCCN1CCN2c3ccccc3Cc3ccccc3[C@@H]2C1)[C@@H]1CSC(c2cccnc2)N1 (stereo partly drawn) [Example 16, (4R)-N-{2-[(14bR)-1,2,3,4,10,14b-Hexahydrodibenzo[c,f]pyrazino[1,2-a]azepin-2-yl]ethyl}-2-(3-pyridyl)thiazolidine-4-carboxamide] | – | 62 | 62 | – | –
O=C(NCCN1CCN2c3ccccc3Cc3ccccc3[C@H]2C1)[C@@H]1CSC(c2cccnc2)N1 (stereo partly drawn) [Example 17, (4R)-N-{2-[(14bS)-1,2,3,4,10,14b-Hexahydrodibenzo[c,f]pyrazino[1,2-a]azepin-2-yl]ethyl}-2-(3-pyridyl)thiazolidine-4-carboxamide] | – | – | 73 | – | –
O=C(NCCN1CCN2c3ccc(F)cc3Cc3ccccc3[C@H]2C1)[C@@H]1CSC(c2cccnc2)N1 (stereo partly drawn) [Example 25, (4R)-N-{2-[(14bS)-8-Fluoro-1,2,3,4,10,14b-hexahydrodibenzo[c,f]pyrazino[1,2-a]azepin-2-yl]ethyl}-2-(3-pyridyl)thiazolidine-4-carboxamide] | – | – | 55 | – | –
